Structures are written as SMILES. Bounds are passed on as bounds.

The target of assay [1] is IKZF2 (Homo sapiens (Human), UniProt Q96SW2+Q9UKS7). In words: In vitro IKZF2 HiBit Assay (HEK293T Flp-in-HiBiT cells). In kind it is cell-based. Conditions: HEK293T Flp-in-HiBiT cells, 6 hrs incubation; for DC50: read-out: IKZF2 HiBit DC50; for Dmax: HEK-293T, read-out: IKZF2 HiBit Dmax (%). Here is the method: In Vitro IKZF2 HiBit Assay
The HiBiT protein tagging system was applied to modified HEK293T Flp-in-HiBiT cells (polyclone) via a CRISPR/Cas9-mediated insertion of the HiBiT peptide tag (Promega™) to the N-terminus of the IKZF2 gene locus (Neon™ transfection system). Test and reference compounds are diluted from 1 mM at 3 folds for 11 doses. 25 nL of diluted compound is transfered to assay plates (Corning3570) using ECHO550, the final DMSO concentration @ 0.1%. The cells are seeded in 3000/25 μL/well to compound plates. It is then incubated for 6 hrs in TC incubator. The amount of Nano-Glo® HiBiT lytic reagent needed to perform the desired experiments is calculated. The Nano-Glo® HiBiT lytic reagent is brought to room temperature. The LgBiT protein is diluted to 1:100 and the Nano-Glo® HiBiT lytic substrate is diluted to 1:50 into an appropriate volume of room temperature Nano-Glo® HiBiT lytic buffer. 15 μL of the detection reagent (or without LgBiT) is dispensed to corresponding well according to the layout. The plate is then shaked for 10 mins at room temperature. After briefly centrifuge, the plate is read on Envision. At the indicated timepoints, the Nano-Glo® HiBiT lytic detection system (Promega™) was utilized for detecting bioluminescence of the HiBiT tag in treated cells: abundance of the tag is proportionate to the level of luminescence. Following normalization to DMSO, dose-response curves were plotted (GraphPad Prism) to determine the concentration points at which 50% of HiBiT-Helios degradation was achieved by each compound. The extent of degradation (range of luminescence) from the highest to lowest concentration points was calculated to determine the Dmax.
(§1) DC50, A: <1 nM; B: 1-10 nM; C: 10-100 nM; D: 100-1000 nM; E: 1000-10000 nM; F: >10,000 nM. Dmax, A: >80%; B: 60-80%; C: 40-60%; D: 20-40%; E: <20%.
For orientation: HiBiT is a short tag that completes a luciferase, so light tracks the accessible tagged protein.

Assay [2] concerns the target IKZF1 (Homo sapiens (Human), UniProt Q13422+Q96SW2). In words: In vitro IKZF1 HiBit Assay (HEK293T Flp-in-HiBiT-IKZF1 stable cell line). In kind it is cell-based. Conditions: HEK293T Flp-in-HiBiT-IKZF1 stable cell line, 6 hrs incubation; for DC50: read-out: IKZF1 HiBit DC50; for Dmax: HEK-293T, read-out: IKZF1 HiBit Dmax (%). How it is done: In Vitro IKZF1 HiBit Assay
The HiBiT protein tagging system was applied to modified Cells: modified HEK293T Flp-in-HiBiT-IKZF1 stable cell line (polyclone) via a CRISPR/Cas9-mediated insertion of the HiBiT peptide tag (Promega™) to the N-terminus of the […] gene locus (Neon™ transfection system).
25 nL of diluted compound is transferred to assay plates (Corning3571) using ECHO550, the final DMSO concentration @ 0.1%. The cells are seeded in 3000/25 μL/well to compound plates. The plates are incubated for 6 hrs in TC incubator. The amount of Nano-Glo® HiBiT lytic reagent needed to perform the desired experiments is calculated. The Nano-Glo® HiBiT lytic reagent is brought to room temperature. The LgBiT protein is diluted to 1:100 and the Nano-Glo® HiBiT lytic substrate is brought to 1:50 into an appropriate volume of room temperature Nano-Glo® HiBiT lytic buffer. 15 μL of the detection reagent (or without LgBiT) is dispensed to corresponding well according to the layout. The plate is shaked for 10 mins at room temperature. After briefly centrifuge, the plateis read on Envision. At the indicated timepoints, the Nano-Glo® HiBiT lytic detection system (Promega™) was utilized for detecting bioluminescence of the HiBiT tag in treated cells: abundance of the tag is proportionate to the level of luminescence. Following normalization to DMSO, dose-response curves were plotted (GraphPad Prism) to determine the concentration points at which 50% of HiBiT-Ikaros degradation was achieved by each compound. The extent of degradation (range of luminescence) from the highest to lowest concentration points was calculated to determine the Dmax.
as §1

IKZF2, sequence (Q9UKS7 whole entry): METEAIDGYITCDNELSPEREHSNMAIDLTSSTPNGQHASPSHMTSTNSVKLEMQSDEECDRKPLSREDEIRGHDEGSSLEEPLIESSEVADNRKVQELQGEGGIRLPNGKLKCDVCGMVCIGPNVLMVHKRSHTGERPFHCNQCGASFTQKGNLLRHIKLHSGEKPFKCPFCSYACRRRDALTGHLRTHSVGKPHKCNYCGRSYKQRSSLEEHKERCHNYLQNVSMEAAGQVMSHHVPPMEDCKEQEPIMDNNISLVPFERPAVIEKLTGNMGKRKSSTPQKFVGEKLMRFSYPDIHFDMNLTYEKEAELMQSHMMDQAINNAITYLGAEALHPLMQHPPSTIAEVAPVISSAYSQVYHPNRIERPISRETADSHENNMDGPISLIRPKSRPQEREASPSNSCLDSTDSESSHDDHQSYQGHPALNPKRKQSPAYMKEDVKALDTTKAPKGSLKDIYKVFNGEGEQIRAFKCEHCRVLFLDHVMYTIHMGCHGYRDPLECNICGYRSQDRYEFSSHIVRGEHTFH
IKZF2, sequence (Q96SW2 whole entry): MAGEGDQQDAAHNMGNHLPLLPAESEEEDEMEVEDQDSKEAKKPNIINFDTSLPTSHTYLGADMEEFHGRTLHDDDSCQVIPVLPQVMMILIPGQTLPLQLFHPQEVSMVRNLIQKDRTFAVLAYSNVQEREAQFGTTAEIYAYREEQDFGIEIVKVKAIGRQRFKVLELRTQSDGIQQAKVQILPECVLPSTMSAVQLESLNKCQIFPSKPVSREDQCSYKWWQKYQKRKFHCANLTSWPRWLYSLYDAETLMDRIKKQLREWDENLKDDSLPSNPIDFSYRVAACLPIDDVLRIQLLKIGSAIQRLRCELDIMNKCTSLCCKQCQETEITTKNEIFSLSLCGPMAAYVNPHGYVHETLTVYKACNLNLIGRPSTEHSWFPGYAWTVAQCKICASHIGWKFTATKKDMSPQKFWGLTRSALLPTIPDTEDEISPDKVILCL
IKZF2, sequence (Q16531 2-1140 partner): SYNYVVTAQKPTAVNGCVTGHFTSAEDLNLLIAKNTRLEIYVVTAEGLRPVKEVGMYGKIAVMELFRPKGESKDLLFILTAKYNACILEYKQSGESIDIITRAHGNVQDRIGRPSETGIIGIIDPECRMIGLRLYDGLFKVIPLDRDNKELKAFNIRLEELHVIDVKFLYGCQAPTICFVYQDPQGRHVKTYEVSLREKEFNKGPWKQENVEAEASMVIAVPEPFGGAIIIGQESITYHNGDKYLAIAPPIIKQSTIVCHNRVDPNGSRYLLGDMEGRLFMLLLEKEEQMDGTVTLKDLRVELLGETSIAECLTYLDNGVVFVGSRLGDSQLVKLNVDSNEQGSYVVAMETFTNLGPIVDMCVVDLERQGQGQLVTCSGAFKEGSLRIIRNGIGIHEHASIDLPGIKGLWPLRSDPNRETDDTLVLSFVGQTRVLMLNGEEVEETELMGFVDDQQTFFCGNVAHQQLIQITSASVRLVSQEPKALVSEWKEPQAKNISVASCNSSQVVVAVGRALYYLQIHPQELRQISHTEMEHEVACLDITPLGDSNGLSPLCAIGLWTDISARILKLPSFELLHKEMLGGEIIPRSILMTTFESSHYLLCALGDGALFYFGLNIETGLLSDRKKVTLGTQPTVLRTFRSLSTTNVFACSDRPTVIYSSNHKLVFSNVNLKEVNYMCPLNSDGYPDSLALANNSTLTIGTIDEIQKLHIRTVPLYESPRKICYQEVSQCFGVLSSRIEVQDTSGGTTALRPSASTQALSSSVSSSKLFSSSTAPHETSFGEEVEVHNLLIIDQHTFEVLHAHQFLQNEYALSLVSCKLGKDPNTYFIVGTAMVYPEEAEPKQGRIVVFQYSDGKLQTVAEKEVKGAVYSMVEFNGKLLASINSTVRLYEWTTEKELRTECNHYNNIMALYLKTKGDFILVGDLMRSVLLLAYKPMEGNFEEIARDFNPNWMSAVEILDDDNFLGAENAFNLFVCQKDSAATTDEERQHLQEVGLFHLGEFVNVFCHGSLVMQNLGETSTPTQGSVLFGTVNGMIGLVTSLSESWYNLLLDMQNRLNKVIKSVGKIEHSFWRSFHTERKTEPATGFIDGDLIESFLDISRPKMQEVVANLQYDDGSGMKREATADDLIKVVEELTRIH
IKZF1, sequence (Q13422 whole entry): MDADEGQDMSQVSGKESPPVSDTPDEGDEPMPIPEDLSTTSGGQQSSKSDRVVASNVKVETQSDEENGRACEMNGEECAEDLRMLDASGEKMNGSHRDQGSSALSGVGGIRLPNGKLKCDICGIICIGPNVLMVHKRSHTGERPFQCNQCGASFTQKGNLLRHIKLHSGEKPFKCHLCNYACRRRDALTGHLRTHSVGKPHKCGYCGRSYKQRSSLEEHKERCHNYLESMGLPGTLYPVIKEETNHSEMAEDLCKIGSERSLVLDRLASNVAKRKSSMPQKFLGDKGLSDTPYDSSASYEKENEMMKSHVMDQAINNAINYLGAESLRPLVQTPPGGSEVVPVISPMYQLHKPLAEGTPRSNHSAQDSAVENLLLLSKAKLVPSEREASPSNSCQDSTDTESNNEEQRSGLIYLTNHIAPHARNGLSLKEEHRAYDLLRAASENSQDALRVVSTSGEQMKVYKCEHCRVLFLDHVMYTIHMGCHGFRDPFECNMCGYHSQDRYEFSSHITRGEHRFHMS
IKZF1, sequence (Q96SW2 whole entry): as the sequence (Q96SW2 whole entry) above
IKZF1, sequence (Q16531 2-1140 partner): as the sequence (Q16531 2-1140 partner) above

As to `O=C1CCC(N2Cc3cc(-c4cc(CN5CCCC5)c5nccc(OCCO)c5n4)ccc3C2=O)C(=O)N1` (stereo not shown) [Example 285, 3-(5-(8-(2-hydroxyethoxy)-4-(pyrrolidin-1-ylmethyl)-1,5-naphthyridin-2-yl)-1-oxoisoindolin-2-yl) piperidine-2,6-dione], the DC50 in assay [1] was 1 to 10 nM; in assay [2], over 10000 nM. Besides, the Dmax was 20 to 40% in assay [1] and under 20% in assay [2].
For `CC(C)Nc1n[nH]c2c(CN3CCC(F)C3)cc(-c3ccc4c(c3F)CN(C3CCC(=O)NC3=O)C4=O)nc12` (stereo not shown) [Example 286], in that order: 1 to 10 nM, over 10000 nM, 60 to 80% and under 20%.
Turning to `CC(C)Nc1n[nH]c2c(CN3CC4(COC4)C3)cc(-c3ccc4c(c3F)CN(C3CCC(=O)NC3=O)C4=O)nc12` (stereo not shown) [Example 287, 3-(5-(7-((2-oxa-6-azaspiro[3.3]heptan-6-yl)methyl)-3-(isopropylamino)-1H-pyrazolo[4,3-b]pyridin-5-yl)-4-fluoro-1-oxoisoindolin-2-yl) piperidine-2,6-dione], in assay [1], the DC50 lay within 10 to 100 nM and the Dmax fell in the range of 60 to 80%. In addition, in assay [2], the DC50 was 100 to 1000 nM and the Dmax fell in the range of 20 to 40%.
For `CC(C)Nc1n[nH]c2c(CN3CCCC3)cc(-c3ccc4c(c3)CN(C3(C)CCC(=O)NC3=O)C4=O)nc12` (stereo not shown) [Example 294, 3-(5-(3-(isopropylamino)-7-(pyrrolidin-1-ylmethyl)-1H-pyrazolo[4,3-b]pyridin-5-yl)-1-oxoisoindolin-2-yl)-3-methylpiperidine-2,6-dione], the figures for the DC50 in assay [1] and in assay [2] were 1000 to 10000 nM and over 10000 nM, respectively. The Dmax in assay [1] is 20 to 40%; in assay [2], under 20%.
`CNc1[nH]nc2c(CN3CCCC3)cc(-c3ccc4c(c3F)CN(C3CCC(=O)NC3=O)C4=O)nc12` (stereo not shown) [Example 296, 3-(4-fluoro-5-(3-(methylamino)-7-(pyrrolidin-1-ylmethyl)-1H-pyrazolo[4,3-b]pyridin-5-yl)-1-oxoisoindolin-2-yl) piperidine-2,6-dione]: in assay [1], the DC50 is under 1 nM and the Dmax was over 80%. In assay [2], the DC50 lay in the range of 1 to 10 nM and the Dmax fell in the range of 60 to 80%.
The like results for `CS(=O)(=O)Nc1n[nH]c2c(CN3CCCC3)cc(-c3ccc4c(c3F)CN(C3CCC(=O)NC3=O)C4=O)nc12` (stereo not shown) [Example 297, N-(5-(2-(2,6-dioxopiperidin-3-yl)-4-fluoro-1-oxoisoindolin-5-yl)-7-(pyrrolidin-1-ylmethyl)-1H-pyrazolo[4,3-b]pyridin-3-yl) methanesulfonamide] were, in that order, over 10000 nM, under 20%, over 10000 nM and under 20%.
For `CC(C)Nc1n[nH]c2c(CN3CCCC3)cc(-c3ccc4c(c3)CN(C35CC(C3)C(=O)NC5=O)C4=O)nc12` [Example 298, 1-(5-(3-(isopropylamino)-7-(pyrrolidin-1-ylmethyl)-1H-pyrazolo[4,3-b]pyridin-5-yl)-1-oxoisoindolin-2-yl)-3-azabicyclo[3.1.1]heptane-2,4-dione], the DC50 in assay [1] was under 1 nM; in assay [2], over 10000 nM. Besides, the Dmax in assay [1] was 20 to 40%; in assay [2] it was under 20%.

The record behind these values is patent US20250214991A1 (Oncopia Therapeutics, Inc. d/b/a/ SK Life Science Labs, priority 2022, published 2025).
